Our source for the inhibition values is patent publication US20190127381A1, “SUBSTITUTED FUSED PYRIMIDINONE COMPOUNDS” (TORRENT PHARMACEUTICALS LIMITED, priority 2016, published 2019).

Molecules are shown by their SMILES.

The target in experiment [1] is T1, purified recombinant human PI3K enzyme δ (Homo sapiens, UniProt O00329).
T1 construct: purchased Invitrogen, USA
Nature of the experiment: Inhibition of PI3-Kinase enzymatic activity (HTRF enzyme assay), δ. The following applies: 1 μM compound; PI3K δ 50 ng/well; PIP2 10 μM; ATP 200 μM; read-out: Percentage inhibition of PI3K activity, δ. The experiment is classed as biochemical. The method, then: (§1) Inhibition of PI3-Kinase enzymatic activity was determined using a homogeneous time-resolved fluorescence (HTRF) kit from Eurofins. 1 μM of Compounds of present invention were premixed with DMSO. The experiment was initiated by mixing 1.0% DMSO as vehicle/compounds with purified recombinant human PI3K enzyme {δ (50 ng/well); γ (100 ng/well)} (Invitrogen, USA) and substrate (PIP2, 10 μM) in the wells and incubation for 15 min at room temperature. There after ATP was added (δ at 200 μM, and γ at 50 μM) in to the wells containing reaction mixture, followed by re-incubation for 30 minutes at room temperature. Reaction was terminated by addition of a stopping solution and was further incubated for 4 hours at room temperature before reading using Envision multimode reader (Perkin Elmer). Percentage inhibition of PI3K activity was calculated by determining ratio of specific europium 665 nm energy transfer signal to reference 615 nm signals.

The target of experiment [2] is T2, purified recombinant human PI3K enzyme γ (Homo sapiens, UniProt P48736).
T2 construct: purchased Invitrogen, USA
T2 sequence (P48736 whole entry): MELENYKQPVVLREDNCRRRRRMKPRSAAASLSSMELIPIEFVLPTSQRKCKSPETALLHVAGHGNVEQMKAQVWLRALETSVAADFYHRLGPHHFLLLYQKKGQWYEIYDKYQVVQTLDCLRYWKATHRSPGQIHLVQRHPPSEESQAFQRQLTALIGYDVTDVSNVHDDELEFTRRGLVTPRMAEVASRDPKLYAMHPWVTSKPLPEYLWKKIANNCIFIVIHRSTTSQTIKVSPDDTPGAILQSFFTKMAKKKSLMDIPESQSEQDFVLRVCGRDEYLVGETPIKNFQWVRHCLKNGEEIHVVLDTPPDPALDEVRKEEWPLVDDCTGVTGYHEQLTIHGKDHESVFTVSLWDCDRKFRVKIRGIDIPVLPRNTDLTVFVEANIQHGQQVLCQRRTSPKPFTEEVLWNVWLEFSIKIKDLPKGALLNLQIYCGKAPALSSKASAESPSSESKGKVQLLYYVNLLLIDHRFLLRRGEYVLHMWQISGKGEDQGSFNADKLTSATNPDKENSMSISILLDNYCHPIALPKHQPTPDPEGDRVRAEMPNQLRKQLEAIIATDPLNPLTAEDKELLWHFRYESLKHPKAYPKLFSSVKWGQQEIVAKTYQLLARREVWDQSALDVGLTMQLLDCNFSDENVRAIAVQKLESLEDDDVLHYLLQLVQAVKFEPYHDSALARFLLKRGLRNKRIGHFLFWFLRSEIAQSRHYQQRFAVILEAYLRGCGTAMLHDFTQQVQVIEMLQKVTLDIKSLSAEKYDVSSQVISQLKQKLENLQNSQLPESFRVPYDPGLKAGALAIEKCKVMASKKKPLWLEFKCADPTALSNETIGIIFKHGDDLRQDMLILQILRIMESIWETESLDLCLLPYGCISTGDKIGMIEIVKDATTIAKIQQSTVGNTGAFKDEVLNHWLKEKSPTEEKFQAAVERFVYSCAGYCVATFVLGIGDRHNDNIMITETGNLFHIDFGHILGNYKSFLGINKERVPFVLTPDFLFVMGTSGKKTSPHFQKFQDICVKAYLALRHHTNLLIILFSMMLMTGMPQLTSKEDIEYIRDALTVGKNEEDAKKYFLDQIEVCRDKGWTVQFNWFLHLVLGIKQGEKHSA
Nature of the experiment: Inhibition of PI3-Kinase enzymatic activity (HTRF enzyme assay), γ. The experiment is classed as biochemical. The following applies: 1 μM compound; PI3K γ 100 ng/well; PIP2 10 μM; ATP 50 μM; read-out: Percentage inhibition of PI3K activity, γ. The method, then:
as §1
For orientation: In TR-FRET formats the signal depends on donor and acceptor labels being close together.

T1 sequence (O00329 whole entry): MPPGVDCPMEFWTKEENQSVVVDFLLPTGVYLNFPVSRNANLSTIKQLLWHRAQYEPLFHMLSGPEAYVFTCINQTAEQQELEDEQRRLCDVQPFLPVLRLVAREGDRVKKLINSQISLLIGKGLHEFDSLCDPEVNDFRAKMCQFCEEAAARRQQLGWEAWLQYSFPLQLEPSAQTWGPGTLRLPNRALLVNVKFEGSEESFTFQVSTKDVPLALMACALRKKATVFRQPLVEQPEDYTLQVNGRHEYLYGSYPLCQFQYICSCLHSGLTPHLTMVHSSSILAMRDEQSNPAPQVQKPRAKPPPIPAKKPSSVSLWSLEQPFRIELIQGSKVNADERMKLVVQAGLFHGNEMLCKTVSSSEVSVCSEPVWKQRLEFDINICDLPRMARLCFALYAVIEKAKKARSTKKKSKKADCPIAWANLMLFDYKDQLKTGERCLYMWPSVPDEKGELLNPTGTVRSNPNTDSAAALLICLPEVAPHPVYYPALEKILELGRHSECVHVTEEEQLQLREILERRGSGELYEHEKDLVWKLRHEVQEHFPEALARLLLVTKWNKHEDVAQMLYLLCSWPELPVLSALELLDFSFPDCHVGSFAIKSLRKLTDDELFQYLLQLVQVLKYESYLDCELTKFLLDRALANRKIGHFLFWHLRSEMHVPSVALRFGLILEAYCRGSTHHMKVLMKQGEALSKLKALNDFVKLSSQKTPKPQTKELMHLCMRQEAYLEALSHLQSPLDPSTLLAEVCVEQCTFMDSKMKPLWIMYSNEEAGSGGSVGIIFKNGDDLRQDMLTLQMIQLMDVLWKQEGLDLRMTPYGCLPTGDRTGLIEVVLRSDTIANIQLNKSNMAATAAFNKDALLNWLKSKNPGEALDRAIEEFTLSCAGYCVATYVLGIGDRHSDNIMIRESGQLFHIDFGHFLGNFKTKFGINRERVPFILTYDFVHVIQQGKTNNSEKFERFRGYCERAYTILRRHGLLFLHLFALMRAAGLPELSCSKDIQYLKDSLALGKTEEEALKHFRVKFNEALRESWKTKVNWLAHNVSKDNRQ
T1 sequence (P27986 whole entry partner): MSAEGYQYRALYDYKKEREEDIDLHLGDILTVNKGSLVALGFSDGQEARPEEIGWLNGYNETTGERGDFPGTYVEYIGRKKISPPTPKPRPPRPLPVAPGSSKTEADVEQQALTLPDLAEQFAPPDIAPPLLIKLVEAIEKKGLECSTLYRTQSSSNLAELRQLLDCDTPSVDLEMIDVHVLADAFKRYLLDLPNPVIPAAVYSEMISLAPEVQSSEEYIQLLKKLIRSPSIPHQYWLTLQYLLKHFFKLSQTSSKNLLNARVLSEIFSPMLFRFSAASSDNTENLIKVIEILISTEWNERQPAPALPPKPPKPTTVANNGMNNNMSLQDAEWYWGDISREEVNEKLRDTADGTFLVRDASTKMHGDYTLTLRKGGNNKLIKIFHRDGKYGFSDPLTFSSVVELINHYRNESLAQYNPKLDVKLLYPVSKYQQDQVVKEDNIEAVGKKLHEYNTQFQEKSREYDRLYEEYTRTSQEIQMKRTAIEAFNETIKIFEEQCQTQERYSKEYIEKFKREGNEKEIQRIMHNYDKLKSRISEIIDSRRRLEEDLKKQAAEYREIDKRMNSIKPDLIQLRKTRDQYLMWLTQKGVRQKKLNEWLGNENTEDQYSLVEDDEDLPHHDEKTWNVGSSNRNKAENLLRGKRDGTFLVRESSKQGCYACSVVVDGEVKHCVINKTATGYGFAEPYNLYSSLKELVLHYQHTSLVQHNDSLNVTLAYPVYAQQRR

The term inhibition denotes the share of the control response that was lost under treatment. In the case of `Cc1cccc2nc(C(C)n3nc(-c4ccc(O)c5c4CC(C)(C)O5)c4c(N)ncnc43)n(-n3cccc3)c(=O)c12` (racemic) [compound 96, 2-{(1RS)-1-[4-amino-3-(7-hydroxy-2,2-dimethyl-2,3-dihydro-1-benzofuran-4-yl)-1H-pyrazolo[3,4-d]pyrimidin-1-yl]ethyl}-5-methyl-3-(1H-pyrrol-1-yl)quinazolin-4(3H)-one], the inhibition at 1 µM in experiment [1] and in experiment [2] was 80 to 100% each time.

As for `Nc1ncnc2c1c(-c1ccc(O)c3c1CCC3)nn2Cc1nc2cccc(Cl)c2c(=O)n1-n1cccc1` [compound 1, 2-{[4-amino-3-(7-hydroxy-2,3-dihydro-1H-inden-4-yl)-1H-pyrazolo[3,4-d]pyrimidin-1-yl]methyl}-5-chloro-3-(1H-pyrrol-1-yl)quinazolin-4(3H)-one], the inhibition at 1 µM in experiment [1] and in experiment [2] was 80 to 100% in each case.

As for `Cc1cccc(C2(n3c(Cn4nc(-c5ccc(O)c6c5CC(C)(C)O6)c5c(N)ncnc54)nc4cccc(-c5ccnn5C)c4c3=O)CC2)c1` [compound 33, 2-{[4-amino-3-(7-hydroxy-2,2-dimethyl-2,3-dihydro-1-benzofuran-4-yl)-1H-pyrazolo[3,4-d]pyrimidin-1-yl]methyl}-3-[1-(3-methylphenyl)cyclopropyl]-5-(1-methyl-1H-pyrazol-5-yl)quinazolin-4(3H)-one], the values for the inhibition at 1 µM in experiment [1] and in experiment [2] were 80 to 100% and 60 to 80%, respectively.

As to `Cc1ccc(-c2cccc3nc(Cn4nc(-c5ccc(O)c6c5CC(C)(C)O6)c5c(N)ncnc54)n(C4(c5ccccc5)CC4)c(=O)c23)o1` [compound 17, 2-{[4-amino-3-(7-hydroxy-2,2-dimethyl-2,3-dihydro-1-benzofuran-4-yl)-1H-pyrazolo[3,4-d]pyrimidin-1-yl]methyl}-5-(5-methylfuran-2-yl)-3-(1-phenylcyclopropyl)quinazolin-4(3H)-one], the inhibition at 1 µM in experiment [1] and in experiment [2] was 60 to 80% in each case.

`CC1(C)Cc2c(-c3nn(Cc4nc5cccc(C#CCN6CCOCC6)c5c(=O)n4-n4cccc4)c4ncnc(N)c34)ccc(O)c2O1` [compound 35, 2-{[4-amino-3-(7-hydroxy-2,2-dimethyl-2,3-dihydro-1-benzofuran-4-yl)-1H-pyrazolo[3,4-d]pyrimidin-1-yl]methyl}-5-[3-(morpholin-4-yl)prop-1-yn-1-yl]-3-(1H-pyrrol-1-yl)quinazolin-4(3H)-one]: the inhibition at 1 µM in experiment [1] is 80 to 100%; in experiment [2], 60 to 80%.

Consider `Cc1ccc(C2(n3c(Cn4nc(-c5ccc(O)c6c5CC(C)(C)O6)c5c(N)ncnc54)nc4cccc(-c5ccnn5C)c4c3=O)CC2)cc1` [compound 40, 2-{[4-amino-3-(7-hydroxy-2,2-dimethyl-2,3-dihydro-1-benzofuran-4-yl)-1H-pyrazolo[3,4-d]pyrimidin-1-yl]methyl}-3-[1-(4-methylphenyl)cyclopropyl]-5-(1-methyl-1H-pyrazol-5-yl)quinazolin-4(3H)-one], for which the inhibition at 1 µM in experiment [1] lay in the range of 80 to 100%; in experiment [2] it was 60 to 80%.

`CC1(C)Cc2c(-c3nn(Cc4nc5cccc(Cl)c5c(=O)n4C4(c5ccccc5)CC4)c4ncnc(N)c34)ccc(O)c2O1` [compound 5, 2-{[4-amino-3-(7-hydroxy-2,2-dimethyl-2,3-dihydro-1-benzofuran-4-yl)-1H-pyrazolo[3,4-d]pyrimidin-1-yl]methyl}-5-chloro-3-(1-phenylcyclopropyl)quinazolin-4(3H)-one]: the inhibition at 1 µM in experiment [1] and in experiment [2] was 80 to 100% each time.

As for `CC1(C)Cc2c(-c3nn(Cc4nc5cccc(Cl)c5c(=O)n4-n4cccn4)c4ncnc(N)c34)ccc(O)c2O1` [compound 6, 2-{[4-amino-3-(7-hydroxy-2,2-dimethyl-2,3-dihydro-1-benzofuran-4-yl)-1H-pyrazolo[3,4-d]pyrimidin-1-yl]methyl}-5-chloro-3-(1H-pyrazol-1-yl)quinazolin-4(3H)-one], the values for the inhibition at 1 µM in experiment [1] and in experiment [2] were 80 to 100% and 60 to 80%, respectively.

Take `Cc1ccc(C)n1-n1c(Cn2nc(-c3ccc(O)c4c3CC(C)(C)O4)c3c(N)ncnc32)nc2cccc(C#CCO)c2c1=O` [compound 42, 2-{[4-amino-3-(7-hydroxy-2,2-dimethyl-2,3-dihydro-1-benzofuran-4-yl)-1H-pyrazolo[3,4-d]pyrimidin-1-yl]methyl}-3-(2,5-dimethyl-1H-pyrrol-1-yl)-5-(3-hydroxyprop-1-yn-1-yl)quinazolin-4(3H)-one]: the inhibition at 1 µM in experiment [1] and in experiment [2] was 80 to 100% each time.

`CC(=O)NCC#Cc1cccc2nc(Cn3nc(-c4ccc(O)c5c4CC(C)(C)O5)c4c(N)ncnc43)n(-n3cccc3)c(=O)c12` [compound 28, N-{3-[2-{[4-amino-3-(7-hydroxy-2,2-dimethyl-2,3-dihydro-1-benzofuran-4-yl)-1H-pyrazolo[3,4-d]pyrimidin-1-yl]methyl}-4-oxo-3-(1H-pyrrol-1-yl)-3,4-dihydroquinazolin-5-yl]prop-2-yn-1-yl}acetamide]: the inhibition at 1 µM in experiment [1] and in experiment [2] was 80 to 100% throughout.

As to `CC1(C)Cc2c(-c3nn(Cc4nc5cccc(C#CCO)c5c(=O)n4C4(c5ccccc5)CC4)c4ncnc(N)c34)ccc(O)c2O1` [compound 24, 2-{[4-amino-3-(7-hydroxy-2,2-dimethyl-2,3-dihydro-1-benzofuran-4-yl)-1H-pyrazolo[3,4-d]pyrimidin-1-yl]methyl}-5-(3-hydroxyprop-1-yn-1-yl)-3-(1-phenylcyclopropyl)quinazolin-4(3H)-one], the inhibition at 1 µM in experiment [1] and in experiment [2] was 80 to 100% in each case.

Turning to `Cc1cc(C)n(-n2c(Cn3nc(-c4ccc(O)c5c4CC(C)(C)O5)c4c(N)ncnc43)nc3cccc(Cl)c3c2=O)n1` [compound 12, 2-{[4-amino-3-(7-hydroxy-2,2-dimethyl-2,3-dihydro-1-benzofuran-4-yl)-1H-pyrazolo[3,4-d]pyrimidin-1-yl]methyl}-5-chloro-3-(3,5-dimethyl-1H-pyrazol-1-yl)quinazolin-4(3H)-one], the inhibition at 1 µM in experiment [1] and in experiment [2] was 80 to 100% throughout.

`CC1(C)Cc2c(-c3nn(Cc4nc5cccc(-c6ccncc6)c5c(=O)n4-n4cccc4)c4ncnc(N)c34)ccc(O)c2O1` [compound 18, 2-{[4-amino-3-(7-hydroxy-2,2-dimethyl-2,3-dihydro-1-benzofuran-4-yl)-1H-pyrazolo[3,4-d]pyrimidin-1-yl]methyl}-5-(pyridin-4-yl)-3-(1H-pyrrol-1-yl)quinazolin-4(3H)-one]: the inhibition at 1 µM in experiment [1] is 80 to 100%; in experiment [2], 60 to 80%.

`Cc1ccc(C)n1-n1c(Cn2nc(-c3ccc(O)c4c3CC(C)(C)O4)c3c(N)ncnc32)nc2cccc(C#Cc3cncn3C)c2c1=O` [compound 67, 2-{[4-amino-3-(7-hydroxy-2,2-dimethyl-2,3-dihydro-1-benzofuran-4-yl)-1H-pyrazolo[3,4-d]pyrimidin-1-yl]methyl}-3-(2,5-dimethyl-1H-pyrrol-1-yl)-5-[(1-methyl-1H-imidazol-5-yl)ethynyl]quinazolin-4(3H)-one]: the inhibition at 1 µM in experiment [1] is 80 to 100%; in experiment [2], < 20%.

With `CCCn1cc(-c2cccc3nc(Cn4nc(-c5ccc(O)c6c5CC(C)(C)O6)c5c(N)ncnc54)n(-n4c(C)ccc4C)c(=O)c23)cn1` [compound 89, 2-{[4-amino-3-(7-hydroxy-2,2-dimethyl-2,3-dihydro-1-benzofuran-4-yl)-1H-pyrazolo[3,4-d]pyrimidin-1-yl]methyl}-3-(2,5-dimethyl-1H-pyrrol-1-yl)-5-(1-propyl-1H-pyrazol-4-yl)quinazolin-4(3H)-one], the inhibition at 1 µM in experiment [1] and in experiment [2] was 80 to 100% each time.

For `CC1(C)Cc2c(-c3nn(Cc4nc5cccc(-c6cccnc6)c5c(=O)n4C4(c5ccccc5)CC4)c4ncnc(N)c34)ccc(O)c2O1` [compound 16, 2-{[4-amino-3-(7-hydroxy-2,2-dimethyl-2,3-dihydro-1-benzofuran-4-yl)-1H-pyrazolo[3,4-d]pyrimidin-1-yl]methyl}-3-(1-phenylcyclopropyl)-5-(pyridin-3-yl)quinazolin-4(3H)-one], the inhibition at 1 µM is 80 to 100% in experiment [1] and 60 to 80% in experiment [2].

In the case of `Cc1ccccc1C1(n2c(Cn3nc(-c4ccc(O)c5c4CC(C)(C)O5)c4c(N)ncnc43)nc3cccc(Cl)c3c2=O)CC1` [compound 55, 2-{[4-amino-3-(7-hydroxy-2,2-dimethyl-2,3-dihydro-1-benzofuran-4-yl)-1H-pyrazolo[3,4-d]pyrimidin-1-yl]methyl}-5-chloro-3-[1-(2-methylphenyl)cyclopropyl]quinazolin-4(3H)-one], the inhibition at 1 µM in experiment [1] fell in the range of 80 to 100%; in experiment [2], 60 to 80%.

As for `Cc1cccc2nc(Cn3nc(-c4ccc(O)c5c4CC(C)(C)O5)c4c(N)ncnc43)n(C3(c4ccccc4)CC3)c(=O)c12` [Compound No. 8, 2-{[4-amino-3-(7-hydroxy-2,2-dimethyl-2,3-dihydro-1-benzofuran-4-yl)-1H-pyrazolo[3,4-d]pyrimidin-1-yl]methyl}-5-methyl-3-(1-phenylcyclopropyl)quinazolin-4(3H)-one], the inhibition at 1 µM in experiment [1] was in the range of 80 to 100%; in experiment [2] it was 60 to 80%.
